Data: patent US20050065185A1, “Heterocyclylalkoxy-, -alkylthio- and -alkylaminobenzazole derivatives as 5-hydroxytryptamine-6 ligands” (Wyeth, priority 2001, published 2005)
Structures can show the parent of a compound that is named as a salt.

Experiments:
[1] = target: T1, human cloned 5-HT6 receptors (Homo sapiens, UniProt P50406); test: 5-HT6 binding affinity, [3H]-LSD displacement on membranes of Hela cells expressing human cloned 5-HT6 receptors
T1 construct: expressed in transfected cells; host or cells: HeLa cells
Protocol: The affinity of test compounds for the serotonin 5-HT6 receptor is evaluated in the following manner. Cultured Hela cells expressing human cloned 5-HT6 receptors are harvested and centrifuged at low speed (1,000×g) for 10.0 min to remove the culture media. The harvested cells are suspended in half volume of fresh physiological phosphate buffered saline solution and recentrifuged at the same speed. This operation is repeated. The collected cells are then homogenized in ten volumes of 50 mM Tris.HCl (pH 7.4) and 0.5 mM EDTA. The homogenate is centrifuged at 40,000×g for 30.0 min and the precipitate is collected. The obtained pellet is resuspended in 10 volumes of Tris.HCl buffer and recentrifuged at the same speed. The final pellet is suspended in a small volume of Tris.HCl buffer and the tissue protein content is determined in aliquots of 10-25 μl volumes. Bovine Serum Albumin is used as the standard in the protein determination according to the method described in Lowry et al., J. Biol. Chem., 193:265 (1951). The volume of the suspended cell membranes is adjusted to give a tissue protein concentration of 1.0 mg/ml of suspension. The prepared membrane suspension (10 times concentrated) is aliquoted in 1.0 ml volumes and stored at −70° C. until used in subsequent binding experiments.
The reaction is allowed to proceed in the dark for 120 min at room temperature, at which time, the bound ligand-receptor complex is filtered off on a 96 well unifilter with a Packard Filtermate® 196 Harvester. The bound complex caught on the filter disk is allowed to air dry and the radioactivity is measured in a Packard TopCount® equipped with six photomultiplier detectors, after the addition of 40.0 μl Microscint®-20 scintillant to each shallow well. The unifilter plate is heat-sealed and counted in a PackardTopCount® with a tritium efficiency of 31.0%.
Binding in the presence of varying concentrations of test compound is expressed as a percentage of specific binding in the absence of test compound. The results are plotted as log % bound versus log concentration of test compound. […] A linear regression line of data points is plotted, from which the IC50 value is determined and the Ki value is determined based upon the following equation: Ki=IC50/(1+L/KD) where L is the concentration of the radioactive ligand used and KD is the dissociation constant of the ligand for the receptor, both expressed in nM.

T1 sequence (P50406 whole entry): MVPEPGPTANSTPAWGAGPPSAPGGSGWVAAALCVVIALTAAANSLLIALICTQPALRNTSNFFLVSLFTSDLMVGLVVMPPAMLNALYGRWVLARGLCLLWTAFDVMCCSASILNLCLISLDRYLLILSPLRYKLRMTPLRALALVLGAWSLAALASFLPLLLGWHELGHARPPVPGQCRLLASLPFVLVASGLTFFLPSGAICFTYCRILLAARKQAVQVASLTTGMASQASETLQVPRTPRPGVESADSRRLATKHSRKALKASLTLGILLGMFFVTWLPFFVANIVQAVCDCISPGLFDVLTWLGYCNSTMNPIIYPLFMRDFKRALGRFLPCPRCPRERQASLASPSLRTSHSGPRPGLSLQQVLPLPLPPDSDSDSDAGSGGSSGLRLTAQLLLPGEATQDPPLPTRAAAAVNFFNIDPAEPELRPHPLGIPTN

Structure (SMILES) | melting point | Ki [1] [nM]
O=S(=O)(c1ccc(Cl)s1)n1ccc2c(OC[C@@H]3CCCN3)cccc21 (as salt: hydrochloride) [Example 4, 1-[(5-chlorothien-2-yl)sulfonyl]-4-[(2S)-pyrrolidin-2-ylmethoxy]-1H-indole] | 204 to 206 °C | 
O=S(=O)(c1ccccc1F)n1ccc2c(OC[C@@H]3CCCN3)cccc21 (as salt: hydrochloride) [Example 5, 1-[(2-fluorophenyl)sulfonyl)-4-[(2S)-pyrrolidin-2-ylmethoxy]-1H-indole] | 153 to 155 °C | 
O=S(=O)(c1cccc(F)c1)n1ccc2c(OC[C@@H]3CCCN3)cccc21 (as salt: hydrochloride) [Example 6, 1-[(3-fluorophenyl)sulfonyl)-4-[(2S)-pyrrolidin-2-ylmethoxy]-1H-indole] | 160 to 162 °C | 
O=S(=O)(c1ccc(F)cc1)n1ccc2c(OC[C@@H]3CCCN3)cccc21 (as salt: hydrochloride) [Example 7, 1-[(4-fluorophenyl)sulfonyl)-4-[(2S)-pyrrolidin-2-ylmethoxy]-1H-indole] | 258 °C (dec.) | 
COc1ccc(S(=O)(=O)n2ccc3c(OC[C@@H]4CCCN4)cccc32)cc1OC (as salt: hydrochloride) [Example 8, 1-[(3,4-dimethoxyphenyl)sulfonyl)-4-[(2S)-pyrrolidin-2-ylmethoxy]-1H-indole] | 115 °C (dec.) | 
Nc1ccc(S(=O)(=O)n2ccc3c(OC[C@@H]4CCCN4)cccc32)cc1 (as salt: hydrochloride) [Example 9] | 150 °C (dec.) | 
O=S(=O)(c1ccccc1Cl)n1ncc2c(OC[C@@H]3CCCN3)cccc21 (as salt: hydrochloride) [Example 17, 1-[(2-chlorophenyl)sulfonyl]-4-[(2S)-pyrrolidin-2-ylmethoxy]-1H-indazole] | > 255 °C (dec.) | 
O=S(=O)(c1ccccc1F)n1ncc2c(OC[C@@H]3CCCN3)cccc21 (as salt: hydrochloride) [Example 18, 1-[(2-fluorophenyl)sulfonyl]-4-[(2S)-pyrrolidin-2-ylmethoxy]-1H-indazole] | 145 to 148 °C | 
O=S(=O)(c1ccc(Cl)s1)n1ncc2c(OC[C@@H]3CCCN3)cccc21 (as salt: hydrochloride) [Example 19, 1-[(5-chlorothien-2-yl)sulfonyl]-4-[(2S)-pyrrolidin-2-ylmethoxy]-1H-indazole] | 195 °C | 
Nc1ccc(S(=O)(=O)n2ncc3c(OC[C@@H]4CCCN4)cccc32)cc1 (as salt: hydrochloride) [Example 20, 4-({4-[(2S)-pyrrolidin-2-ylmethoxy}-1H-indazol-1-yl}sulfonyl)aniline] | 150 to 155 °C | 
Nc1ccc(S(=O)(=O)n2ncc3c(OC[C@@H]4CCCN4)cccc32)cc1Cl (as salt: hydrochloride) [Example 21, 2-chloro-4-({4-[(2S)-pyrrolidin-2-ylmethoxy]-1H-indazol-1-yl}sulfonyl)aniline] | 220 °C (dec.) | 
O=S(=O)(c1ccccc1)n1ccc2c(OC[C@@H]3CCCN3)cccc21 [Example 3, 1-(Phenylsulfonyl)-4-[(2S)-pyrrolidin-2-ylmethoxy]-1H-indole hydrochloride] |  | 6
O=S(=O)(c1ccc(Cl)s1)n1ccc2c(OC[C@@H]3CCCN3)cccc21 [Example 4, 1-[(5-chlorothien-2-yl)sulfonyl]-4-[(2S)-pyrrolidin-2-ylmethoxy]-1H-indole] |  | 7
O=S(=O)(c1ccccc1F)n1ccc2c(OC[C@@H]3CCCN3)cccc21 [Example 5, 1-[(2-fluorophenyl)sulfonyl)-4-[(2S)-pyrrolidin-2-ylmethoxy]-1H-indole] |  | 2
O=S(=O)(c1cccc(F)c1)n1ccc2c(OC[C@@H]3CCCN3)cccc21 [Example 6, 1-[(3-fluorophenyl)sulfonyl)-4-[(2S)-pyrrolidin-2-ylmethoxy]-1H-indole] |  | 8
O=S(=O)(c1ccc(F)cc1)n1ccc2c(OC[C@@H]3CCCN3)cccc21 [Example 7, 1-[(4-fluorophenyl)sulfonyl)-4-[(2S)-pyrrolidin-2-ylmethoxy]-1H-indole] |  | 31
COc1ccc(S(=O)(=O)n2ccc3c(OC[C@@H]4CCCN4)cccc32)cc1OC [Example 8, 1-[(3,4-dimethoxyphenyl)sulfonyl)-4-[(2S)-pyrrolidin-2-ylmethoxy]-1H-indole] |  | 95
Nc1ccc(S(=O)(=O)n2ccc3c(OC[C@@H]4CCCN4)cccc32)cc1 [Example 9] |  | 1
O=S(=O)(c1ccccc1)n1ccc2c(OC[C@H]3CCCN3)cccc21 [Example 11, 1-(Phenylsulfonyl)-4-[(2R)-]pyrrolidin-2-ylmethoxy]-1H-indole hydrochloride] |  | 106
O=S(=O)(c1ccccc1)n1ncc2c(OC[C@@H]3CCCN3)cccc21 [Example 15, 1-(Phenylsulfonyl)-4-[(2S)-pyrrolidin-2-ylmethoxy]-1H-indazole trifluoroacetic acid salt] |  | 7
O=S(=O)(c1cccc2cccnc12)n1ncc2c(OC[C@@H]3CCCN3)cccc21 [Example 16, 8-({4-[(2S)-pyrrolidin-2-ylmethoxy]-1H-indazol-1-yl}sulfonyl)quinoline] | 217 to 218 °C | 85
O=S(=O)(c1ccccc1Cl)n1ncc2c(OC[C@@H]3CCCN3)cccc21 [Example 17, 1-[(2-chlorophenyl)sulfonyl]-4-[(2S)-pyrrolidin-2-ylmethoxy]-1H-indazole] |  | 5
O=S(=O)(c1ccccc1F)n1ncc2c(OC[C@@H]3CCCN3)cccc21 [Example 18, 1-[(2-fluorophenyl)sulfonyl]-4-[(2S)-pyrrolidin-2-ylmethoxy]-1H-indazole] |  | 8
O=S(=O)(c1ccc(Cl)s1)n1ncc2c(OC[C@@H]3CCCN3)cccc21 [Example 19, 1-[(5-chlorothien-2-yl)sulfonyl]-4-[(2S)-pyrrolidin-2-ylmethoxy]-1H-indazole] |  | 5
Nc1ccc(S(=O)(=O)n2ncc3c(OC[C@@H]4CCCN4)cccc32)cc1 [Example 20, 4-({4-[(2S)-pyrrolidin-2-ylmethoxy}-1H-indazol-1-yl}sulfonyl)aniline] |  | 9
Nc1ccc(S(=O)(=O)n2ncc3c(OC[C@@H]4CCCN4)cccc32)cc1Cl [Example 21, 2-chloro-4-({4-[(2S)-pyrrolidin-2-ylmethoxy]-1H-indazol-1-yl}sulfonyl)aniline] |  | 16
